# From patent US20230027066A1 (Urovant Sciences GmbH, priority 2019, published 2023)
# What was measured:
# [1] = Phase 3 study (75 mg), heart rate and blood pressure changes; assay type: in vivo, human
# Source text: Study assessments of safety included adverse events, physical examinations, vital signs (and weight), and clinical laboratory tests
# Categorical changes are based on 3 consecutive post-baseline visits and patients are counted in all applicable categories (e.g., if a patient has a 12 unit increase then that patient is counted in both ≥5 and ≥10 unit columns).
# Blood Pressure assessments are taken in triplicate and averaged at each visit.
# [2] = 40-week extension study (52 weeks), adverse events
# Source text: Approximately 500 men and women with overactive bladder who completed 12 weeks in the parent study were permitted to enroll, at approximately 110 study sites in the U.S.
# Secondary endpoints were evaluation of CFB at Week 52 in average number of micturitions, Urge Urinary Incontinence (UUI) episodes, urgency episodes, and total urinary incontinence episodes. All CFB calculations used the parent study Baseline value.
# [3] = 3 consecutive post-baseline visits
smiles,measurement,setting,value
"Cc1ccc(O)c([C@H](CCN(C(C)C)C(C)C)c2ccccc2)c1 [Tolterodine ER, tolterodine, reference compound]","Diastolic BP categorical change from baseline ≥5 mm Hg, patients",[1]; [3],7.4%
same,"Diastolic BP categorical change from baseline ≥10 mm Hg, patients",[1]; [3],2.1%
same,"Diastolic BP categorical change from baseline ≥15 mm Hg, patients",[1]; [3],0.7%
same,"Heart Rate categorical change from baseline ≥5 bpm, patients",[1]; [3],6.5%
same,"Heart Rate categorical change from baseline ≥10 bpm, patients",[1]; [3],2.1%
same,"Heart Rate categorical change from baseline ≥15 bpm, patients",[1]; [3],0.5%
same,"Systolic BP categorical change from baseline ≥5 mm Hg, patients",[1]; [3],9.3%
same,"Systolic BP categorical change from baseline ≥10 mm Hg, patients",[1]; [3],4.7%
same,"Systolic BP categorical change from baseline ≥15 mm Hg, patients",[1]; [3],2.1%
same,"Diastolic BP, 12-week change (95% CI)",[1]; Hypertensive at baseline,"−1.3 (−3.8, +1.3) mm Hg"
same,"Heart Rate, 12-week change",[1]; Hypertensive at baseline,+1.5 beats/minute
same,"Systolic BP, 12-week change (95% CI)",[1]; Hypertensive at baseline,"−7.6 (−10.9, −4.3) mm Hg"
same,"Diastolic BP, 12-week change (95% CI)",[1]; Normotensive at baseline,"+0.5 (−0.2, +1.3) mm Hg"
same,"Heart Rate, 12-week change",[1]; Normotensive at baseline,+0.2 beats/minute
same,"Systolic BP, 12-week change (95% CI)",[1]; Normotensive at baseline,"+1.0 (−0.1, +2.1) mm Hg"
same,"Diastolic BP, Mean Change from Baseline at Week 12 (SD)","[1]; Week 12, all patients",0.3 (7.11) mm Hg
same,"Heart Rate, Mean Change from Baseline at Week 12","[1]; Week 12, all patients",0.3 beats/minute
same,"Systolic BP, Mean Change from Baseline at Week 12","[1]; Week 12, all patients",0.1 mm Hg
same,Discontinued the study: Death,[2]; 40-Weeks arm,0 n (%)
same,Discontinued the study: Death,[2]; 52-Weeks arm,0 n (%)
same,SAEs resulting in death (not considered related by Investigator or Sponsor),[2]; Overall groups,0 n (%)
same,Discontinued the study: Death,"[2]; Overall groups, Randomized Set Extension",0 n (%)
same,Discontinued the study: Adverse Event,"[2]; both, human, in vivo",8 (3.4) n (%)
same,Patients with at least one treatment-emergent adverse event,"[2]; both, human, in vivo",126 (54.3) n (%)
same,Patients with at least one treatment-emergent serious AE,"[2]; both, human, in vivo",10 (4.3) n (%)
same,SAEs considered treatment-related by the investigator,"[2]; both, human, in vivo",2 (0.9) n (%)
same,SAEs: Hospitalization,"[2]; both, human, in vivo",9 (3.9) n (%)
same,SAEs: Other serious criteria,"[2]; both, human, in vivo",2 (0.9) n (%)
same,Discontinued the study: Adverse Event,"[2]; both, human, in vivo, 40 weeks",4 (4.4) n (%)
same,AE leading to discontinuation of study drug: Acute prerenal failure,"[2]; both, human, in vivo, 52 weeks",1 (0.4) n (%)
same,AE leading to discontinuation of study drug: Amnesia,"[2]; both, human, in vivo, 52 weeks",0 n (%)
same,AE leading to discontinuation of study drug: Any,"[2]; both, human, in vivo, 52 weeks",8 (3.4) n (%)
same,AE leading to discontinuation of study drug: Aortic stenosis,"[2]; both, human, in vivo, 52 weeks",1 (0.4) n (%)
same,AE leading to discontinuation of study drug: Atrial fibrillation,"[2]; both, human, in vivo, 52 weeks",1 (0.4) n (%)
same,AE leading to discontinuation of study drug: Blood creatinine increased,"[2]; both, human, in vivo, 52 weeks",0 n (%)
same,AE leading to discontinuation of study drug: Blood urea increased,"[2]; both, human, in vivo, 52 weeks",0 n (%)
same,AE leading to discontinuation of study drug: Cardiac failure,"[2]; both, human, in vivo, 52 weeks",1 (0.4) n (%)
same,AE leading to discontinuation of study drug: Cardiomyopathy,"[2]; both, human, in vivo, 52 weeks",1 (0.4) n (%)
same,AE leading to discontinuation of study drug: Chronic kidney disease,"[2]; both, human, in vivo, 52 weeks",1 (0.4) n (%)
same,AE leading to discontinuation of study drug: Constipation,"[2]; both, human, in vivo, 52 weeks",0 n (%)
same,AE leading to discontinuation of study drug: Diarrhea,"[2]; both, human, in vivo, 52 weeks",0 n (%)
same,AE leading to discontinuation of study drug: Dizziness,"[2]; both, human, in vivo, 52 weeks",1 (0.4) n (%)
same,AE leading to discontinuation of study drug: Dry eye,"[2]; both, human, in vivo, 52 weeks",1 (0.4) n (%)
same,AE leading to discontinuation of study drug: Dyspnoea,"[2]; both, human, in vivo, 52 weeks",1 (0.4) n (%)
same,AE leading to discontinuation of study drug: Haematuria,"[2]; both, human, in vivo, 52 weeks",1 (0.4) n (%)
same,AE leading to discontinuation of study drug: Headache,"[2]; both, human, in vivo, 52 weeks",1 (0.4) n (%)
same,AE leading to discontinuation of study drug: Intervertebral disc degeneration,"[2]; both, human, in vivo, 52 weeks",1 (0.4) n (%)
same,AE leading to discontinuation of study drug: Mitral valve incompetence,"[2]; both, human, in vivo, 52 weeks",1 (0.4) n (%)
same,AE leading to discontinuation of study drug: Osteoarthritis,"[2]; both, human, in vivo, 52 weeks",1 (0.4) n (%)
same,AE leading to discontinuation of study drug: Pulmonary embolism,"[2]; both, human, in vivo, 52 weeks",1 (0.4) n (%)
same,AE leading to discontinuation of study drug: Sinus tachycardia,"[2]; both, human, in vivo, 52 weeks",1 (0.4) n (%)
same,AE leading to discontinuation of study drug: Tricuspid valve incompetence,"[2]; both, human, in vivo, 52 weeks",1 (0.4) n (%)
same,AE: Anaemia,"[2]; both, human, in vivo, 52 weeks",2 (0.9) n (%)
same,AE: Atrial fibrillation,"[2]; both, human, in vivo, 52 weeks",1 (0.4) n (%)
same,AE: Back pain,"[2]; both, human, in vivo, 52 weeks",3 (1.3) n (%)
same,AE: Blood pressure increased,"[2]; both, human, in vivo, 52 weeks",4 (1.7) n (%)
same,AE: Bronchitis,"[2]; both, human, in vivo, 52 weeks",3 (1.3) n (%)
same,AE: Constipation,"[2]; both, human, in vivo, 52 weeks",6 (2.6) n (%)
same,AE: Diarrhea,"[2]; both, human, in vivo, 52 weeks",4 (1.7) n (%)
same,AE: Dizziness,"[2]; both, human, in vivo, 52 weeks",2 (0.9) n (%)
same,AE: Dry mouth,"[2]; both, human, in vivo, 52 weeks",12 (5.2) n (%)
same,AE: Fatigue,"[2]; both, human, in vivo, 52 weeks",0 n (%)
same,AE: Headache,"[2]; both, human, in vivo, 52 weeks",9 (3.9) n (%)
same,AE: Hyperglycemia,"[2]; both, human, in vivo, 52 weeks",2 (0.9) n (%)
same,AE: Hypertension,"[2]; both, human, in vivo, 52 weeks",20 (8.6) n (%)
same,AE: Hypotension,"[2]; both, human, in vivo, 52 weeks",0 n (%)
same,AE: Musculoskeletal pain,"[2]; both, human, in vivo, 52 weeks",1 (0.4) n (%)
same,AE: Nasopharyngitis,"[2]; both, human, in vivo, 52 weeks",12 (5.2) n (%)
same,AE: Nausea,"[2]; both, human, in vivo, 52 weeks",7 (3.0) n (%)
same,AE: Residual urine volume increased,"[2]; both, human, in vivo, 52 weeks",3 (1.3) n (%)
same,AE: Syncope,"[2]; both, human, in vivo, 52 weeks",1 (0.4) n (%)
same,AE: Tachycardia (Sinus Tachycardia),"[2]; both, human, in vivo, 52 weeks",1 (0.4) n (%)
same,AE: Upper respiratory tract infection,"[2]; both, human, in vivo, 52 weeks",1 (0.4) n (%)
same,AE: Urinary retention,"[2]; both, human, in vivo, 52 weeks",1 (0.4) n (%)
same,AE: Urinary tract infection,"[2]; both, human, in vivo, 52 weeks",17 (7.3) n (%)
same,Discontinued the study: Adverse Event,"[2]; both, human, in vivo, 52 weeks",4 (2.8) n (%)
